Measurements taken from patent US9326973B2, “Hepatitis C virus inhibitors” (priority 2012, dated 2016).

System: HCV replicon, genotype-1a variant with glutamine 30 changed to glutamate in the NS5A protein
Experiment: microbe, parasite or virus in culture
Type: cell-based, HCV genotype 1a
Details: HCV replicon genotype 1a Q30E (Q→E) variant; test compound titrated with an NS5A-targeting compound (BMS-790052 fixed at 200 nM); ranking of synergist activity
Method in brief: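 Synergy was assessed by combining several fixed amounts of an NS5A-targeting compound with a titration of the second compound of interest.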

| SMILES | Fold-Synergistic 1a (Q30E) [fold] |
| --- | --- |
| C[C@H]1CC[C@@H](C(=O)N[C@H](c2nc(-c3ccc(-c4ccc(-c5c[nH]c([C@@H](NC(=O)[C@@H]6CC[C@H](C)N6C(=O)OC(C)(C)C)C(C)(C)C)n5)cc4)cc3)c[nH]2)C(C)(C)C)N1C(=O)OC(C)(C)C [Compound W-69] | >100 |
| C[C@H]1CC[C@@H](C(=O)N[C@H](c2nc(-c3ccc(-c4ccc(-c5c[nH]c([C@@H](NC(=O)[C@@H]6CC[C@H](C)N6C(=O)OC(C)(C)C)C6(C)CC6)n5)cc4)cc3)c[nH]2)C2(C)CC2)N1C(=O)OC(C)(C)C [Compound W-72] | >100 |
| CC(C)[C@H](NC(=O)[C@@H]1C2C[C@@H]2CN1C(=O)OC(C)(C)C)c1nc(-c2ccc(-c3ccc(-c4c[nH]c([C@@H](NC(=O)[C@@H]5C6C[C@@H]6CN5C(=O)OC(C)(C)C)C(C)C)n4)cc3)cc2)c[nH]1 (stereo partly drawn) [Compound W-74] | >100 |
| CC(C)(C)OC(=O)N1C[C@H]2CC2[C@H]1C(=O)N[C@H](c1nc(-c2ccc(-c3ccc(-c4c[nH]c([C@@H](NC(=O)[C@@H]5C6C[C@@H]6CN5C(=O)OC(C)(C)C)C5(C)CC5)n4)cc3)cc2)c[nH]1)C1(C)CC1 (stereo partly drawn) [Compound W-75] | >100 |
| CC(C)(C)OC(=O)N1C[C@@H](F)C[C@H]1C(=O)N[C@H](c1nc(-c2ccc(-c3ccc(-c4c[nH]c([C@@H](NC(=O)[C@@H]5C[C@H](F)CN5C(=O)OC(C)(C)C)C(C)(C)C)n4)cc3)cc2)c[nH]1)C(C)(C)C [Compound W-83] | >100 |
| CC(C)(C)OC(=O)N1CCC[C@H]1C(=O)N[C@H](c1nc(-c2ccc(-c3ccc(-c4c[nH]c([C@@H](NC(=O)[C@@H]5CCCN5C(=O)OC(C)(C)C)C(C)(C)C)n4)cc3)cc2)c[nH]1)C(C)(C)C [Compound W-86] | >100 |
| CC(C)(C)OC(=O)N1CCC[C@@H]1C(=O)N[C@H](c1nc(-c2ccc(-c3ccc(-c4c[nH]c([C@@H](NC(=O)[C@H]5CCCN5C(=O)OC(C)(C)C)C(C)(C)C)n4)cc3)cc2)c[nH]1)C(C)(C)C [Compound W-87] | >100 |
| CC(C)(C)OC(=O)N1CC(F)(F)C[C@H]1C(=O)N[C@H](c1nc(-c2ccc(-c3ccc(-c4c[nH]c([C@@H](NC(=O)[C@@H]5CC(F)(F)CN5C(=O)OC(C)(C)C)C(C)(C)C)n4)cc3)cc2)c[nH]1)C(C)(C)C [Compound W-88] | >100 |
| C=C1C[C@@H](C(=O)N[C@H](c2nc(-c3ccc(-c4ccc(-c5c[nH]c([C@@H](NC(=O)[C@@H]6CC(=C)CN6C(=O)OC(C)(C)C)C(C)C)n5)cc4)cc3)c[nH]2)C(C)C)N(C(=O)OC(C)(C)C)C1 [Compound W-89] | >100 |
| C=C1C[C@@H](C(=O)N[C@H](c2nc(-c3ccc(-c4ccc(-c5c[nH]c([C@@H](NC(=O)[C@@H]6CC(=C)CN6C(=O)OC(C)(C)C)C(C)(C)C)n5)cc4)cc3)c[nH]2)C(C)(C)C)N(C(=O)OC(C)(C)C)C1 [Compound W-91] | >100 |
| CC(C)(C)OC(=O)N1CC2(CC2)C[C@H]1C(=O)N[C@H](c1nc(-c2ccc(-c3ccc(-c4c[nH]c([C@@H](NC(=O)[C@@H]5CC6(CC6)CN5C(=O)OC(C)(C)C)C(C)(C)C)n4)cc3)cc2)c[nH]1)C(C)(C)C [Compound W-94] | >100 |
| CC(C)(C)OC(=O)N1C[C@H](O)C[C@H]1C(=O)N[C@H](c1nc(-c2ccc(-c3ccc(-c4c[nH]c([C@@H](NC(=O)[C@@H]5C[C@@H](O)CN5C(=O)OC(C)(C)C)C5(C)CC5)n4)cc3)cc2)c[nH]1)C1(C)CC1 [Compound W-95] | >100 |
| CC(C)(C)OC(=O)N1C[C@H](O)C[C@H]1C(=O)N[C@H](c1nc(-c2ccc(-c3ccc(-c4c[nH]c([C@@H](NC(=O)[C@@H]5C[C@@H](O)CN5C(=O)OC(C)(C)C)C(C)(C)C)n4)cc3)cc2)c[nH]1)C(C)(C)C [Compound W-96] | >100 |
| CC(C)[C@H](NC(=O)[C@@H]1C[C@@H](O)CN1C(=O)OC(C)(C)C)c1nc(-c2ccc(-c3ccc(-c4c[nH]c([C@@H](NC(=O)[C@@H]5C[C@@H](O)CN5C(=O)OC(C)(C)C)C(C)C)n4)cc3)cc2)c[nH]1 [Compound W-97] | >100 |
| CC(C)(C)OC(=O)N1C[C@@H](O)C[C@H]1C(=O)N[C@H](c1nc(-c2ccc(-c3ccc(-c4c[nH]c([C@@H](NC(=O)[C@@H]5C[C@H](O)CN5C(=O)OC(C)(C)C)C(C)(C)C)n4)cc3)cc2)c[nH]1)C(C)(C)C [Compound W-98] | >100 |
| CC(C)(C)OC(=O)N1C[C@@H](O)C[C@H]1C(=O)N[C@H](c1nc(-c2ccc(-c3ccc(-c4c[nH]c([C@@H](NC(=O)[C@@H]5C[C@H](O)CN5C(=O)OC(C)(C)C)C5(C)CC5)n4)cc3)cc2)c[nH]1)C1(C)CC1 [Compound W-99] | >100 |
| CC(C)[C@H](NC(=O)[C@@H]1C[C@H](O)CN1C(=O)OC(C)(C)C)c1nc(-c2ccc(-c3ccc(-c4c[nH]c([C@@H](NC(=O)[C@@H]5C[C@H](O)CN5C(=O)OC(C)(C)C)C(C)C)n4)cc3)cc2)c[nH]1 [Compound W-100] | >100 |
| CC(C)(C)[C@H](NC(=O)[C@@H]1C[C@@H](F)CN1C(=O)C1CC1)c1nc(-c2ccc(-c3ccc(-c4c[nH]c([C@@H](NC(=O)[C@@H]5C[C@@H](F)CN5C(=O)C5CC5)C(C)(C)C)n4)cc3)cc2)c[nH]1 [Compound W-104] | >100 |
| CC(C)(C)C(=O)N1C[C@H](F)C[C@H]1C(=O)N[C@H](c1nc(-c2ccc(-c3ccc(-c4c[nH]c([C@@H](NC(=O)[C@@H]5C[C@@H](F)CN5C(=O)C(C)(C)C)C(C)(C)C)n4)cc3)cc2)c[nH]1)C(C)(C)C [Compound W-105] | >100 |
| CC(C)OC(=O)N1C[C@H](F)C[C@H]1C(=O)N[C@H](c1nc(-c2ccc(-c3ccc(-c4c[nH]c([C@@H](NC(=O)[C@@H]5C[C@@H](F)CN5C(=O)OC(C)C)C(C)(C)C)n4)cc3)cc2)c[nH]1)C(C)(C)C [Compound W-107] | >100 |
| CC(C)(C)[C@H](NC(=O)[C@@H]1C[C@@H](F)CN1C(=O)OCCF)c1nc(-c2ccc(-c3ccc(-c4c[nH]c([C@@H](NC(=O)[C@@H]5C[C@@H](F)CN5C(=O)OCCF)C(C)(C)C)n4)cc3)cc2)c[nH]1 [Compound W-108] | >100 |
| COC(=O)N1C[C@H](F)C[C@H]1C(=O)N[C@H](c1nc(-c2ccc(-c3ccc(-c4c[nH]c([C@@H](NC(=O)[C@@H]5C[C@@H](F)CN5C(=O)OC)C(C)(C)C)n4)cc3)cc2)c[nH]1)C(C)(C)C [Compound W-109] | >100 |
| COCCOC(=O)N1C[C@H](F)C[C@H]1C(=O)N[C@H](c1nc(-c2ccc(-c3ccc(-c4c[nH]c([C@@H](NC(=O)[C@@H]5C[C@@H](F)CN5C(=O)OCCOC)C(C)(C)C)n4)cc3)cc2)c[nH]1)C(C)(C)C [Compound W-110] | >100 |
| CO[C@H]1C[C@@H](C(=O)N[C@H](c2nc(-c3ccc(-c4ccc(-c5c[nH]c([C@@H](NC(=O)[C@@H]6C[C@H](OC)CN6C(=O)OC(C)(C)C)C(C)(C)C)n5)cc4)cc3)c[nH]2)C(C)(C)C)N(C(=O)OC(C)(C)C)C1 [Compound W-115] | >100 |
